# Test results: PubChem BioAssay (NCI)
#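 Protocol summary: plate cells (96-well), add compound at 5 concentrations, incubate 48 h, interpolate endpoints linearly. TGI is the concentration that stops growth completely.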
# Tests used:
# Test in all cases: DTP human tumour cell line panel, 48 h
# MALME-3M melanoma = test system: MALME-3M melanoma
# NCI-H460 lung = test system: NCI-H460 lung
# SF-268 CNS = test system: SF-268 CNS
# A549 NSCLC = test system: A549 NSCLC
# UO-31 renal = test system: UO-31 renal
# KM12 colon = test system: KM12 colon
# SN12C renal = test system: SN12C renal
# HCT-15 colon = test system: HCT-15 colon
# HT29 colon = test system: HT29 colon
# HOP-18 NSCLC = test system: HOP-18 NSCLC
# SF-539 CNS = test system: SF-539 CNS
# RPMI-8226 leukemia = test system: RPMI-8226 leukemia
# 786-0 renal = test system: 786-0 renal
# CAKI-1 renal = test system: CAKI-1 renal
# UACC-257 melanoma = test system: UACC-257 melanoma
# TK-10 renal = test system: TK-10 renal
# MOLT-4 leukemia = test system: MOLT-4 leukemia
# DMS 273 small cell lung = test system: DMS 273 small cell lung
# M19-MEL melanoma = test system: M19-MEL melanoma
# SW-620 colon = test system: SW-620 colon
# LOX IMVI melanoma = test system: LOX IMVI melanoma
# M14 melanoma = test system: M14 melanoma
# SNB-78 CNS = test system: SNB-78 CNS
# OVCAR-8 ovarian = test system: OVCAR-8 ovarian
# KM20L2 colon = test system: KM20L2 colon
# DMS 114 small cell lung = test system: DMS 114 small cell lung
# OVCAR-5 ovarian = test system: OVCAR-5 ovarian
# SR leukemia = test system: SR leukemia
# OVCAR-3 ovarian = test system: OVCAR-3 ovarian
# CCRF-CEM leukemia = test system: CCRF-CEM leukemia
# ACHN renal = test system: ACHN renal
# HCT-116 colon = test system: HCT-116 colon
# NCI-H522 lung = test system: NCI-H522 lung
# OVCAR-4 ovarian = test system: OVCAR-4 ovarian
# SK-MEL-28 melanoma = test system: SK-MEL-28 melanoma
# HL-60(TB) leukemia = test system: HL-60(TB) leukemia
# SK-OV-3 ovarian = test system: SK-OV-3 ovarian
# LXFL 529 NSCLC = test system: LXFL 529 NSCLC
# A498 renal = test system: A498 renal
# COLO 205 colon = test system: COLO 205 colon
# NCI-H226 lung = test system: NCI-H226 lung
# U251 CNS = test system: U251 CNS
# UACC-62 melanoma = test system: UACC-62 melanoma
# HOP-92 NSCLC = test system: HOP-92 NSCLC
# SNB-19 CNS = test system: SNB-19 CNS
# SK-MEL-5 melanoma = test system: SK-MEL-5 melanoma
# HCC-2998 colon = test system: HCC-2998 colon
# SF-295 CNS = test system: SF-295 CNS
# RXF 393 renal = test system: RXF 393 renal
# IGROV1 ovarian = test system: IGROV1 ovarian
# HOP-62 NSCLC = test system: HOP-62 NSCLC
# EKVX NSCLC = test system: EKVX NSCLC
# SNB-75 CNS = test system: SNB-75 CNS
# DLD-1 colon = test system: DLD-1 colon
# NCI-H23 lung = test system: NCI-H23 lung
# SK-MEL-2 melanoma = test system: SK-MEL-2 melanoma
compound,measurement,setting,value
C=CCC12CCC(=O)[C@@]1(C)CC=C(O)C2=O (stereo partly specified),TGI,MALME-3M melanoma,> 100 µM
same,TGI,NCI-H460 lung,> 100 µM
same,TGI,SF-268 CNS,> 100 µM
same,TGI,A549 NSCLC,> 100 µM
same,TGI,UO-31 renal,> 100 µM
same,TGI,KM12 colon,> 100 µM
same,TGI,SN12C renal,> 100 µM
same,TGI,HCT-15 colon,> 100 µM
same,TGI,HT29 colon,> 100 µM
same,TGI,HOP-18 NSCLC,> 100 µM
same,TGI,SF-539 CNS,> 100 µM
same,TGI,RPMI-8226 leukemia,> 100 µM
same,TGI,786-0 renal,> 100 µM
same,TGI,CAKI-1 renal,> 100 µM
same,TGI,UACC-257 melanoma,> 100 µM
same,TGI,TK-10 renal,> 100 µM
same,TGI,MOLT-4 leukemia,> 100 µM
same,TGI,DMS 273 small cell lung,> 100 µM
same,TGI,M19-MEL melanoma,> 100 µM
same,TGI,SW-620 colon,> 100 µM
same,TGI,LOX IMVI melanoma,> 100 µM
same,TGI,M14 melanoma,> 100 µM
same,TGI,SNB-78 CNS,> 100 µM
same,TGI,OVCAR-8 ovarian,> 100 µM
same,TGI,KM20L2 colon,> 100 µM
same,TGI,DMS 114 small cell lung,> 100 µM
same,TGI,OVCAR-5 ovarian,> 100 µM
same,TGI,SR leukemia,> 100 µM
same,TGI,OVCAR-3 ovarian,> 100 µM
same,TGI,CCRF-CEM leukemia,> 100 µM
same,TGI,ACHN renal,> 100 µM
same,TGI,HCT-116 colon,> 100 µM
same,TGI,NCI-H522 lung,> 100 µM
same,TGI,OVCAR-4 ovarian,> 100 µM
same,TGI,SK-MEL-28 melanoma,> 100 µM
same,TGI,HL-60(TB) leukemia,> 100 µM
same,TGI,SK-OV-3 ovarian,> 100 µM
same,TGI,LXFL 529 NSCLC,> 100 µM
same,TGI,A498 renal,> 100 µM
same,TGI,COLO 205 colon,> 100 µM
same,TGI,NCI-H226 lung,> 100 µM
same,TGI,U251 CNS,> 100 µM
same,TGI,UACC-62 melanoma,> 100 µM
same,TGI,HOP-92 NSCLC,> 100 µM
same,TGI,SNB-19 CNS,> 100 µM
same,TGI,SK-MEL-5 melanoma,> 100 µM
same,TGI,HCC-2998 colon,> 100 µM
same,TGI,SF-295 CNS,> 100 µM
same,TGI,RXF 393 renal,> 100 µM
same,TGI,IGROV1 ovarian,> 100 µM
same,TGI,HOP-62 NSCLC,> 100 µM
same,TGI,EKVX NSCLC,> 100 µM
same,TGI,SNB-75 CNS,> 100 µM
same,TGI,DLD-1 colon,> 100 µM
CN(C)CC1CCCCCCCCCCCCC(CN(C)C)C1=O (stereo unspecified),TGI,MALME-3M melanoma,29.4 µM
same,TGI,NCI-H460 lung,27.6 µM
same,TGI,SF-268 CNS,26 µM
same,TGI,A549 NSCLC,29.6 µM
same,TGI,UO-31 renal,26.8 µM
same,TGI,KM12 colon,24 µM
same,TGI,SN12C renal,29.4 µM
same,TGI,HCT-15 colon,34.8 µM
same,TGI,HT29 colon,18.5 µM
same,TGI,HOP-18 NSCLC,30.1 µM
same,TGI,SF-539 CNS,28.7 µM
same,TGI,786-0 renal,21.7 µM
same,TGI,CAKI-1 renal,26.3 µM
same,TGI,UACC-257 melanoma,29.9 µM
same,TGI,TK-10 renal,27.9 µM
same,TGI,MOLT-4 leukemia,20.8 µM
same,TGI,DMS 273 small cell lung,22.9 µM
same,TGI,M19-MEL melanoma,25.1 µM
same,TGI,SW-620 colon,20.6 µM
same,TGI,LOX IMVI melanoma,21.3 µM
same,TGI,M14 melanoma,25.9 µM
same,TGI,SNB-78 CNS,28.7 µM
same,TGI,OVCAR-8 ovarian,22.4 µM
same,TGI,KM20L2 colon,24.9 µM
same,TGI,DMS 114 small cell lung,31.3 µM
same,TGI,OVCAR-5 ovarian,30.6 µM
same,TGI,SR leukemia,14 µM
same,TGI,OVCAR-3 ovarian,30.7 µM
same,TGI,ACHN renal,29.9 µM
same,TGI,HCT-116 colon,16.8 µM
same,TGI,OVCAR-4 ovarian,29.4 µM
same,TGI,SK-MEL-28 melanoma,26.6 µM
same,TGI,SK-OV-3 ovarian,32.3 µM
same,TGI,LXFL 529 NSCLC,28.1 µM
same,TGI,A498 renal,33 µM
same,TGI,COLO 205 colon,27.6 µM
same,TGI,NCI-H23 lung,32 µM
same,TGI,NCI-H226 lung,23.9 µM
same,TGI,U251 CNS,28 µM
same,TGI,UACC-62 melanoma,26.1 µM
same,TGI,HOP-92 NSCLC,26.3 µM
same,TGI,SNB-19 CNS,31.6 µM
same,TGI,SK-MEL-5 melanoma,27.8 µM
same,TGI,HCC-2998 colon,22.2 µM
same,TGI,SF-295 CNS,29.6 µM
same,TGI,RXF 393 renal,24 µM
same,TGI,IGROV1 ovarian,33.1 µM
same,TGI,HOP-62 NSCLC,30.3 µM
same,TGI,EKVX NSCLC,37.3 µM
same,TGI,SNB-75 CNS,24.6 µM
same,TGI,DLD-1 colon,29.6 µM
same,TGI,SK-MEL-2 melanoma,26 µM
